Test [1] concerns the target His-tagged recombinant human Gal-3 (hGal-3) (Homo sapiens, UniProt P17931). Briefly: Gal-3 HTRF assay (His-tagged hGal-3 / B-ASF). The class given is binding. To be noted: 15 nM hGal-3, 15 nM B-ASF.
Test [2] addresses T1, hCRBN (NanoLuc-CRBN fusion construct in HEK-293 cells) (Homo sapiens, UniProt Q96SW2).
T1 construct: expressed in transfected cells; host or cells: HEK-293
Nature of the test: CRBN BRET Target Engagement. To be noted: NanoLuc-CRBN transfected HEK-293 cells, BRET with CRBN Probe. The class given is cell-based. (In general: Bioluminescence resonance energy transfer reports proximity on the nanometre scale.)

The target in test [3] is T2, Gal3 (Human Galectin-3) in THP-1 cells (Homo sapiens, UniProt P17931).
T2 construct: host or cells: THP-1
Briefly: ELISA Gal3 Degradation Assay in THP-1 Cells. To be noted: 48 hours, culture media Gal3 by ELISA. The class given is cell-based. A general note: ELISA stands for enzyme-linked immunosorbent assay.

Molecules are shown by their SMILES. Like-named read-outs stand apart in the source and are kept apart here.

The text below walks through data of patent US12291522B2, “Galectin-3 inhibitors” (BRISTOL-MYERS SQUIBB COMPANY, priority 2020, dated 2025).

What is called IC50 is the midpoint of a concentration-inhibition curve.

T2 sequence (P17931 whole entry): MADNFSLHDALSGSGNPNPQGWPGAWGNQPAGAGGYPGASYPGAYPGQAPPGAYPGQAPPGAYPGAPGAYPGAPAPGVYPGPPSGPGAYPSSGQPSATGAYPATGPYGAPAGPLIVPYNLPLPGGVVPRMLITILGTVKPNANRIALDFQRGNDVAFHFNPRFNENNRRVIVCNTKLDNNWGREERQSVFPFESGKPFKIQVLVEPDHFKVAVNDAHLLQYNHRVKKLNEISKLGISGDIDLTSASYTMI
T1 sequence (Q96SW2 whole entry, the tested form may be a part): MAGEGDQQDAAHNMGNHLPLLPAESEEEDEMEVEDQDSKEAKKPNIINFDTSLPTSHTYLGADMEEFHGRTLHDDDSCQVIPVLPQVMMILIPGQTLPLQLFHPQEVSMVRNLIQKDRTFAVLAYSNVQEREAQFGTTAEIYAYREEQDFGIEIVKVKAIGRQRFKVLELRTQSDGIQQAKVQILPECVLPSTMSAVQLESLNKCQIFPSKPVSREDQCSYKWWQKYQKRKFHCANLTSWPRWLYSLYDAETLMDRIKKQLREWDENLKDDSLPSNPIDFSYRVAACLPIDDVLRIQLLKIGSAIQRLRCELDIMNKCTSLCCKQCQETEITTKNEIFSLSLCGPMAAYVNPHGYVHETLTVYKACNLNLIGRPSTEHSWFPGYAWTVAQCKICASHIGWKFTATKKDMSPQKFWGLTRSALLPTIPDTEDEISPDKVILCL
His-tagged recombinant human Gal-3 (hGal-3), sequence (P17931 whole entry, the tested form may be a part): as the sequence (P17931 whole entry) above

Turning to `Cc1nc([C@@H]2O[C@H](CO)[C@H](O)[C@H](n3cc(-c4cc(F)c(Cl)c(F)c4)nn3)[C@H]2OCC(=O)N[C@H]2C[C@@H](Oc3ccc(C(=O)Nc4ccc5c(c4)CN([C@H]4CCC(=O)NC4=O)C5=O)nc3)C2)n(-c2cc(Cl)ccc2C(F)(F)F)n1` [Example 5, 5-(cis-3-(2-(((2S,3R,4S,5R,6R)-2-(1-(5-chloro-2-(trifluoromethyl)phenyl)-3-methyl-1H-1,2,4-triazol-5-yl)-4-(4-(4-chloro-3,5-difluorophenyl)-1H-1,2,3-triazol-1-yl)-5-hydroxy-6-(hydroxymethyl)tetrahydro-2H-pyran-3-yl)oxy)acetamido)cyclobutoxy)-N-(2-((S)-2,6-dioxopiperidin-3-yl)-1-oxoisoindolin-5-yl)picolinamide], the IC50 is 84 nM in test [1]; 39 nM in test [2]; under 10 nM in test [3] (test 1, read-out: Supernatant (IC50) test 1); under 10 nM in test [3] (test 2, read-out: Supernatant (IC50) test 2).
